The source of these data is ChEMBL document CHEMBL3045995, “Novel antifeeding limonoids from Dysoxylum hainanense” (2002).

In the assay the test system is Pieris rapae. Put plainly: Antifeeding activity against fifth-instar larvae Pieris rapae in compound treated Brassica oleracea L leaf disk at 500 ppm measured after 24 hr relative to control. The class given is functional.
Take `C/C=C(\C)C(=O)O[C@H]1C[C@@H](OC(C)=O)[C@@]2(C(=O)OC)CO[C@H]3[C@@H](O)[C@@](C)([C@]45O[C@@]4(C)[C@@H]4C[C@H]5O[C@@H]5OC=C[C@@]54O)[C@H]4[C@]1(CO[C@]4(O)C(=O)OC)[C@@H]32` [AZADIRACHTIN A]: the FDI came to 100%. `C=C1[C@@H]([C@]2(C)[C@H]3CC(=O)O[C@@]3(C)CO[C@@H]2CC(=O)O)[C@@H](O)[C@H](OC(=O)C(O)C(C)C)[C@@]2(C)[C@H](c3ccoc3)[C@@H](O)[C@H]3O[C@]132` (stereo partly specified) [DYSOXYLUMIC ACID A] showed an FDI of 78.7%.

The molecule `C=C1[C@@H]([C@]2(C)[C@H]3CC(=O)O[C@@]3(C)CO[C@@H]2CC(=O)O)[C@@H](O)[C@H](OC(=O)C(O)C(C)C)[C@@]2(C)[C@H](C3=CC(O)OC3=O)[C@@H](O)[C@H]3O[C@]132` (stereo partly specified) [DYSOXYLUMIC ACID B] showed an FDI of 64.1%. `C=C1[C@@H]2[C@@H](O[C@@H](CC(=O)O)[C@@]2(C)[C@H]2CC(=O)O[C@]2(C)CO)[C@H](OC(=O)C(O)C(C)C)[C@@]2(C)[C@H](c3ccoc3)[C@@H](O)[C@H]3O[C@]132` (stereo partly specified) [DYSOXYLUMIC ACID C]: the FDI was determined as 59.4%. Molecule `CC(=O)O[C@@H]1[C@H]2C(=C3[C@H](O)[C@H](O)[C@@H](c4ccoc4)[C@]3(C)[C@H]1OC(=O)C(O)C(C)C)COC(=O)C[C@@H](OC(=O)C(O)C(C)C)[C@@]2(C)[C@@H](CC(=O)O)C(C)(O)CO` (stereo partly specified) [DYSOXYLUMIC ACID D] registered an FDI of 29.5%. The result for `C=C1[C@@H]([C@@]2(C)[C@@H](OC(C)=O)CC(=O)O[C@](C)(COC(C)=O)[C@@H]2CC(=O)OC)[C@@H](OC=O)[C@H](OC(=O)[C@H](O)C(C)C)[C@@]2(C)[C@@H](c3ccoc3)[C@@H](OC(=O)[C@@H](C)CC)[C@H]3O[C@]132` [DYSOXYLUMINS A] reads 73.8%; that for `C=C1[C@@H]([C@@]2(C)[C@@H](OC(C)=O)CC(=O)O[C@](C)(COC(C)=O)[C@@H]2CC(=O)OC)[C@@H](OC=O)[C@H](OC(=O)[C@H](O)C(C)C)[C@@]2(C)[C@@H](c3ccoc3)[C@@H](OC(=O)[C@H](OC(C)=O)C(C)C)[C@H]3O[C@]132` [DYSOXYLUMINS B], 77.4%; that for `C=C1[C@@H]([C@@]2(C)[C@@H](OC(C)=O)CC(=O)O[C@](C)(COC(C)=O)[C@@H]2CC(=O)OC)[C@@H](OC=O)[C@H](OC(=O)[C@H](O)C(C)C)[C@@]2(C)[C@@H](c3ccoc3)[C@@H](OC(=O)[C@H](O)C(C)C)[C@H]3O[C@]132` [DYSOXYLUMINS C], 74.9%. To `C=C1[C@@H]2[C@@H](O[C@H]3CC(=O)O[C@@]4(C)COC(=O)C[C@@H]4[C@]32C)[C@H](OC(=O)C(O)C(C)C)[C@@]2(C)[C@H](c3ccoc3)[C@@H](OC(=O)C(O)C(C)C)[C@H]3O[C@]132` (stereo partly specified) [DYSOXYLUMOLIDE A] belongs 27.9%. The result for `CC(C)C(O)C(=O)O[C@H]1[C@H](O)[C@H]2C(=C3[C@H](O)[C@H](O)[C@@H](c4ccoc4)[C@@]31C)COC(=O)C[C@@H](OC(=O)C(O)C(C)C)[C@@]2(C)[C@H]1CC(=O)OC[C@@]1(C)O` (stereo partly specified) [DYSOXYLUMOLIDE B] reads 28.3%; that for `CC(C)C(O)C(=O)OC(C(=O)O[C@@H]1[C@H](O)[C@@H]2[C@](C)(/C=C\C(=O)OC[C@@]2(C)O)[C@H]2CC[C@@]3(C)[C@H](c4ccoc4)OC(=O)[C@H]4O[C@]43[C@]12C)C(C)C` (stereo partly specified) [DYSOXYLUMOLIDE C], 22.4%.
